Data reported in the NIST ThermoML archive (doi:10.1021/je4009415).

How the values were obtained:
[1] = Liquid; for mass density: Vibrating tube method; for vapor or sublimation pressure: Ebulliometric method (Recirculating still)
[2] = refractive index (Na D-line) (dimensionless); settings: 298.15 K; 101.33 kPa; Liquid; Standard Abbe refractometry
[3] = xn = mol fraction of the nth substance listed; settings: Liquid, Vibrating tube method

CCC(=O)OC [methyl propanoate]
[1]
Settings | mass density [kg/m3] | vapor or sublimation pressure [kPa]
288.15 K | 921.21 | –
298.15 K | 909.1 | –
308.15 K | 896.91 | –
318.15 K | 884.71 | –
328.15 K | 872.22 | –
335.15 K | – | 55
336.38 K | – | 57.5
337.53 K | – | 60
338.61 K | – | 62.5
339.76 K | – | 65
340.79 K | – | 67.5
341.81 K | – | 70
342.79 K | – | 72.5
343.75 K | – | 75
344.68 K | – | 77.5
345.59 K | – | 80
346.49 K | – | 82.5
347.35 K | – | 85
348.2 K | – | 87.5
349.03 K | – | 90
349.83 K | – | 92.5
350.62 K | – | 95
352.34 K | – | 100
352.72 K | – | 101.32
352.75 K | – | 101.32
353.81 K | – | 105
355.23 K | – | 110
356.53 K | – | 115
357.87 K | – | 120
359.16 K | – | 125
360.42 K | – | 130
361.65 K | – | 135
362.8 K | – | 140
363.97 K | – | 145
365.05 K | – | 150
366.15 K | – | 155
367.22 K | – | 160
368.27 K | – | 165
369.26 K | – | 170
370.25 K | – | 175
371.22 K | – | 180
372.2 K | – | 185
373.12 K | – | 190
374.01 K | – | 195
374.9 K | – | 200
375.77 K | – | 205
376.63 K | – | 210
377.52 K | – | 215
378.3 K | – | 220
379.14 K | – | 225
379.96 K | – | 230
380.72 K | – | 235
381.51 K | – | 240
382.25 K | – | 245
383.03 K | – | 250
383.74 K | – | 255
384.47 K | – | 260
385.21 K | – | 265
385.87 K | – | 270
386.61 K | – | 275
387.28 K | – | 280

Settings | refractive index
[2] | 1.3743

CCC(=O)OC [methyl propanoate] + CCCCC
mass density [kg/m3], [3], 101 kPa
Settings | 288.15 K | 298.15 K
x1 = 0.0597 | 644.23 | –
x1 = 0.0641 | – | 635.16
x1 = 0.0925 | 651.9 | –
x1 = 0.0938 | – | 642.1
x1 = 0.1482 | – | 654.98
x1 = 0.1507 | 665.97 | –
x1 = 0.204 | 679.21 | –
x1 = 0.2099 | – | 670.19
x1 = 0.2574 | – | 682.36
x1 = 0.2614 | 693.95 | –
x1 = 0.3127 | 707.38 | –
x1 = 0.3135 | – | 696.99
x1 = 0.3382 | 714.27 | –
x1 = 0.3389 | – | 703.72
x1 = 0.3927 | 729.16 | –
x1 = 0.3942 | – | 718.75
x1 = 0.442 | 743.09 | –
x1 = 0.4459 | – | 733.12
x1 = 0.4985 | 759.2 | –
x1 = 0.4999 | – | 748.56
x1 = 0.5461 | 773.25 | –
x1 = 0.5478 | – | 762.56
x1 = 0.5921 | – | 775.9
x1 = 0.5926 | 787.12 | –
x1 = 0.6407 | 801.96 | –
x1 = 0.6434 | – | 791.33
x1 = 0.6898 | – | 805.83
x1 = 0.69 | 817.19 | –
x1 = 0.7559 | – | 826.88
x1 = 0.7581 | 839.01 | –
x1 = 0.8051 | – | 842.74
x1 = 0.8072 | 855.11 | –
x1 = 0.8487 | 868.74 | –
x1 = 0.8499 | – | 857.54
x1 = 0.8891 | 882.39 | –
x1 = 0.8915 | – | 871.51
x1 = 0.9538 | 904.73 | –
x1 = 0.9601 | – | 894.98
x1 = 1 | 921.21 | 909.1

CCCCCCCCC [nonane]
[1]
Settings | mass density [kg/m3] | vapor or sublimation pressure [kPa]
288.15 K | 721.65 | –
298.15 K | 713.85 | –
308.15 K | 705.96 | –
318.15 K | 698.06 | –
328.15 K | 690.17 | –
423.9 K | – | 101.32

Settings | refractive index
[2] | 1.4032

CCCCCCCCC [nonane] + CCC(=O)OC
[3], x2 = 0
Settings | mass density [kg/m3]
288.15 K | 721.65
298.15 K | 713.85
308.15 K | 705.96
318.15 K | 698.06
328.15 K | 690.17

CCCCCCCCC [nonane] + CCOC(=O)CC
[3], x2 = 0
Settings | mass density [kg/m3]
288.15 K | 721.65
298.15 K | 713.85
308.15 K | 705.96
318.15 K | 698.06
328.15 K | 690.17

CCCCC [pentane]
[1]
Settings | mass density [kg/m3] | vapor or sublimation pressure [kPa]
288.15 K | 630.78 | –
298.15 K | 620.9 | –
298.91 K | – | 70
299.82 K | – | 72.5
300.77 K | – | 75
301.65 K | – | 77.5
302.52 K | – | 80
303.38 K | – | 82.5
304.22 K | – | 85
305.02 K | – | 87.5
305.81 K | – | 90
306.62 K | – | 92.5
307.37 K | – | 95
308.12 K | – | 97.5
308.87 K | – | 100
309.23 K | – | 101.32
310.28 K | – | 105
311.64 K | – | 110
312.97 K | – | 115
314.26 K | – | 120
315.5 K | – | 125
316.7 K | – | 130
317.87 K | – | 135
319.01 K | – | 140
320.11 K | – | 145
321.17 K | – | 150
322.24 K | – | 155
323.25 K | – | 160
324.26 K | – | 165
325.24 K | – | 170
326.18 K | – | 175
327.12 K | – | 180
328.03 K | – | 185
328.93 K | – | 190
329.8 K | – | 195
330.66 K | – | 200
331.51 K | – | 205
332.34 K | – | 210
333.15 K | – | 215
333.95 K | – | 220
334.73 K | – | 225
335.5 K | – | 230
336.28 K | – | 235
337.02 K | – | 240
337.75 K | – | 245
338.47 K | – | 250
339.19 K | – | 255
339.89 K | – | 260
340.59 K | – | 265
341.27 K | – | 270
341.94 K | – | 275
342.6 K | – | 280

Settings | mass density [kg/m3]
[1], 298.15 K, 101 kPa | 620.91

Settings | refractive index
[2] | 1.3547

CCCCC [pentane] + CCC(=O)OC
[3], 101 kPa, x2 = 0
Settings | mass density [kg/m3]
288.15 K | 630.78
298.15 K | 620.91

CCCCC [pentane] + CCOC(=O)CC
[3], x2 = 0
Settings | mass density [kg/m3]
288.15 K | 630.78
298.15 K | 620.9
